Laboratory results taken from the NIST ThermoML archive (doi:10.1021/acs.jced.7b00768).
Numbers after ± are expanded uncertainties.

Columns and labels:
[1] = Crystal; DSC
[2] = Molar enthalpy of transition or fusion; settings: Crystal; DSC

Q: What does the source list for `C[N+](C)(C)C[C@H](O)CC(=O)[O-].O=C(O)/C=C/C(=O)O` [L-carnitine fumarate]?
A: Triple point temperature [1]: 412.2 ± 0.8 K; Molar enthalpy of transition or fusion [2]: 12.2 ± 0.335 kcal/mol
